Measured values published in PubChem BioAssay (NCI).
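Interpolation was linear, between the two tested concentrations surrounding the appropriate level; five concentrations were tested over 48 hours in 96-well plates. Abbreviation: GI50, concentration required for 50% inhibition of growth. TGI: concentration producing complete growth inhibition.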

Key:
Assay in all cases: DTP human tumour cell line panel, 48 h
[1] = tested on: HT29 colon
[2] = tested on: OVCAR-4 ovarian
[3] = tested on: T-47D breast
[4] = tested on: A498 renal
[5] = tested on: LOX IMVI melanoma
[6] = tested on: COLO 205 colon
[7] = tested on: HL-60(TB) leukemia
[8] = tested on: HOP-92 NSCLC
[9] = tested on: SK-MEL-28 melanoma
[10] = tested on: SF-539 CNS
[11] = tested on: KM12 colon
[12] = tested on: OVCAR-5 ovarian
[13] = tested on: ACHN renal
[14] = tested on: SR leukemia
[15] = tested on: NCI-H522 lung
[16] = tested on: CCRF-CEM leukemia
[17] = tested on: UACC-62 melanoma
[18] = tested on: HS 578T breast
[19] = tested on: HCT-15 colon
[20] = tested on: PC-3 prostate
[21] = tested on: MALME-3M melanoma
[22] = tested on: UACC-257 melanoma
[23] = tested on: MOLT-4 leukemia
[24] = tested on: SNB-19 CNS
[25] = tested on: NCI/ADR-RES ovarian
[26] = tested on: UO-31 renal
[27] = tested on: TK-10 renal
[28] = tested on: K-562 leukemia
[29] = tested on: 786-0 renal
[30] = tested on: NCI-H226 lung
[31] = tested on: SK-MEL-5 melanoma
[32] = tested on: IGROV1 ovarian
[33] = tested on: EKVX NSCLC
[34] = tested on: U251 CNS
[35] = tested on: HCT-116 colon
[36] = tested on: HCC-2998 colon
[37] = tested on: HOP-62 NSCLC
[38] = tested on: SNB-75 CNS
[39] = tested on: CAKI-1 renal
[40] = tested on: M14 melanoma
[41] = tested on: NCI-H460 lung
[42] = tested on: MDA-MB-231 breast
[43] = tested on: RPMI-8226 leukemia
[44] = tested on: SK-MEL-2 melanoma
[45] = tested on: A549 NSCLC
[46] = tested on: MDA-MB-435
[47] = tested on: SF-295 CNS
[48] = tested on: SK-OV-3 ovarian
[49] = tested on: SW-620 colon
[50] = tested on: OVCAR-3 ovarian
[51] = tested on: SN12C renal
[52] = tested on: BT-549 breast
[53] = tested on: SF-268 CNS
[54] = tested on: NCI-H23 lung
[55] = tested on: DU-145 prostate
[56] = tested on: RXF 393 renal
[57] = tested on: MCF7 breast
[58] = tested on: OVCAR-8 ovarian

For `CS(=O)(=O)Nc1cc(-c2ccc3ncnc(Nc4ccc5c(cnn5Cc5cccc(F)c5)c4)c3c2)cnc1Cl`, the GI50 [1] was 597 nM, the TGI [1] was 5420 nM and the GI50 [2] was 1380 nM. For the same compound, the TGI [2] was 6510 nM, the GI50 [3] was 101 nM and the TGI [3] was 922 nM. The GI50 [4] was 71.7 nM, the TGI [4] was 535 nM and the GI50 [5] was 400 nM. The TGI [5] was 1900 nM, the GI50 [6] was 759 nM and the TGI [6] was 2960 nM. The GI50 [7] was 283 nM, the TGI [7] was 1980 nM and the GI50 [8] was 56.2 nM. The TGI [8] was 460 nM, the GI50 [9] was 316 nM and the TGI [9] was 1860 nM. For the same compound, the GI50 [10] was 361 nM, the TGI [10] was 1750 nM and the GI50 [11] was 1140 nM. The TGI [11] was 4250 nM, the GI50 [12] was 608 nM and the TGI [12] was 7300 nM. The GI50 [13] was 1630 nM, the TGI [13] was 15400 nM and the GI50 [14] was 507 nM. It also gave a TGI [14] greater than 100000 nM, a GI50 [15] of 381 nM and a TGI [15] of 2740 nM. It also gave a GI50 [16] of 301 nM, a TGI [16] greater than 100000 nM and a GI50 [17] of 324 nM. The TGI [17] was 1690 nM, the GI50 [18] was 111 nM and the TGI [18] was 878 nM. For the same compound, the GI50 [19] was 1110 nM, the TGI [19] was 8010 nM and the GI50 [20] was 411 nM. It also gave a TGI [20] of 2600 nM, a GI50 [21] of 201 nM and a TGI [21] of 1300 nM. The GI50 [22] was 812 nM, the TGI [22] was 4470 nM and the GI50 [23] was 318 nM. For the same compound, the TGI [23] was 3380 nM, the GI50 [24] was 575 nM and the TGI [24] was 3650 nM. The GI50 [25] was 5800 nM, the TGI [25] was greater than 78400 nM and the GI50 [26] was 1040 nM. For the same compound, the TGI [26] was 3960 nM, the GI50 [27] was 277 nM and the TGI [27] was 2190 nM. For the same compound, the GI50 [28] was 913 nM, the TGI [28] was greater than 100000 nM and the GI50 [29] was 456 nM. For the same compound, the TGI [29] was 5410 nM, the GI50 [30] was 1110 nM and the TGI [30] was 4840 nM. For the same compound, the GI50 [31] was 397 nM, the TGI [31] was 1440 nM and the GI50 [32] was 170 nM. For the same compound, the TGI [32] was 733 nM, the GI50 [33] was 479 nM and the TGI [33] was 4700 nM. It also gave a GI50 [34] of 419 nM, a TGI [34] of 3170 nM and a GI50 [35] of 480 nM. The TGI [35] was 1840 nM, the GI50 [36] was 829 nM and the TGI [36] was 2550 nM. For the same compound, the GI50 [37] was 452 nM, the TGI [37] was 7950 nM and the GI50 [38] was 32.1 nM. The TGI [38] was 457 nM, the GI50 [39] was 359 nM and the TGI [39] was 2480 nM. For the same compound, the GI50 [40] was 745 nM, the TGI [40] was 2500 nM and the GI50 [41] was 929 nM. For the same compound, the TGI [41] was 9450 nM, the GI50 [42] was 586 nM and the TGI [42] was 13200 nM. It also gave a GI50 [43] of 396 nM, a TGI [43] of 2050 nM and a GI50 [44] of 275 nM. The TGI [44] was 1210 nM, the GI50 [45] was 1560 nM and the TGI [45] was 5790 nM. For the same compound, the GI50 [46] was 628 nM, the TGI [46] was 2300 nM and the GI50 [47] was 811 nM. It also gave a TGI [47] of 3000 nM, a GI50 [48] of 376 nM and a TGI [48] of 2270 nM. The GI50 [49] was 676 nM, the TGI [49] was 6610 nM and the GI50 [50] was 293 nM. For the same compound, the TGI [50] was 1890 nM, the GI50 [51] was 421 nM and the TGI [51] was 18900 nM. It also gave a GI50 [52] of 227 nM, a TGI [52] of 1050 nM and a GI50 [53] of 256 nM. It also gave a TGI [53] of 2070 nM, a GI50 [54] of 648 nM and a TGI [54] of 6280 nM. The GI50 [55] was 756 nM, the TGI [55] was 11200 nM and the GI50 [56] was 294 nM. For the same compound, the TGI [56] was 1450 nM, the GI50 [57] was 201 nM and the TGI [57] was 1650 nM. For the same compound, the GI50 [58] was 1570 nM and the TGI [58] was greater than 100000 nM.
